“Also recorded” adds a separate entry of the source.
Tests used:
[1] = system: AMPK; assay: AMPK activation in Hela cells, Western blot; format: cell-based; settings: 1 hour, 1, 3 or 5 μM
Description: Activation of AMPK was associated with the phosphorylation of the α-subunit on Thr-172 of as assessed using phospho-specific antibodies (FIGS. 10A-B). AMPK activation also leads to the increased phosphorylation of the target protein acetyl-CoA carboxylase (ACC) (FIG. 10B).
Cells of each cell lines (Hela, HL-60, and 3T3-L1) were treated for 1 hour with a test compound (COH-SR4, COH-SR9, COH-SR16, or COH-SR18) at a concentration of 1 μM, 3 μM, or 5 μM, or AICAR (5-aminoimidazole-4-carboxamideriboside, an AMPK agonist used as positive control) at a concentration of 500 μM, or none of the above (the untreated cells as negative control). Total cell lysates from the untreated cells and the cells treated with a test compound or AICAR were analyzed by Western blot assay using specific antibodies against phospho-AMPK, phospho-ACC, total AMPK and total ACC.

[2] = system: HL-60 cells; assay: HL-60 apoptosis, Annexin V-PI double staining; format: cell-based, human; settings: 3 μM, 48 hours
Description: HL-60 (5×10^5) cells were incubated with a test compound (COH-SR4 or COH-SR9), ATRA, or nothing (Control) for 48 hours, washed and harvested. The cells were then fixed and double stained with Annexin V-FITC and propodium iodide (PI) and analyzed by flow cytometry. Conjugation of Annexin V and PI staining was used to identify apoptosis cells (early stage and late stage), normal/viable cells and necrotic cells. The percentage distribution of normal/viable (R3, lower left quadrant), early apoptotic (R4, lower right quadrant), late apoptotic (R2, upper right quadrant) and necrotic cells (R1, upper left quadrant) was calculated using Summit software. The percentages of apoptotic cells after treatment with various doses of each compound are shown in FIGS. 16A-H. Both COH-SR4 and COH-SR9 treatment of HL-60 cells increased the number of early apoptotic and late apoptotic cells in a dose-dependent manner compared with untreated cells. At 3 μM, overall apoptotic cells were ˜60% and 40% for COH-SR4 and COHSR9, respectively.

[3] = system: NCI-60 human tumor cell lines; assay: NCI-60 DTP Human Tumor Cell Line Drug Screening; format: cell-based; settings: leukemia, NSCLC, colon, CNS, melanoma, ovarian, renal, prostate, breast lines
Text: Moreover, preliminary data from the NCI-60 DTP Human Tumor Cell Line Drug Screening (http://dtp.nci.nih.gov/branches/btb/ivclsp.html) further confirmed the observations on these COH-SR compounds. […] A value of 100 meant no growth inhibition. A value of 20 meant 80% growth inhibition. A value of 0 meant no net growth over the course of the experiment. A value of −40 meant 40% lethality. A value of −100 meant all cells were dead.

[4] = system: PBT028; assay: Glioma ATP viability assay, PBT028; format: cell-based; settings: Table 1; 72 hours
Description: (§1) Cells of each cell line (U251, U87, PBT-017, PBT018, PBT003 and PBT028) were treated with various concentrations (0˜100 μM) of COH-SR4 for 72 hours. Cell viabilities were determined by ATP viability assays. Data were represented as a ratio to vehicle (DMSO) control, and plotted as mean±SEM (n=12) obtained from 2˜3 experiments (FIG. 34A).

[5] = system: PBT003; assay: Glioma ATP viability assay, PBT003; format: cell-based; settings: Table 1; 72 hours
Description: as §1
as §1, with “(U87, U251,” for “(U251, U87, PBT-017, PBT018,”, “PVT-017)” for “PBT028)”, “2-3” for “2˜3”, “34B).” for “34A).”

[6] = system: U251 glioma cells; assay: Combination index with chemotherapy drugs, U251; format: cell-based
Description: Effects of combination of COH-SR4 and a chemotherapy drug such as TMZ, SN38, CPT-11, and 5-FU were studied by combination index (CI) theorem and plot using the method described in Chou (“Experimental Design, and Computerized Simulation of Synergism and Antagonism in Drug Combination Studies,” Pharmacological Reviews, Vol. 58, No. 3), which is incorporated herein by reference in its entirety.
COH-SR4 and a chemotherapy drug (TMZ, SN38, CPT-11, or 5-FU) were dissolved in DMSO individually, and then diluted to the appropriate concentration in the same cell culture media before applying to cells of each cell line. After 4 days, the amount of ATP present in the cell lysates were assessed using Progema's CellGlo kit. The CI of each combination of COH-SR4 and the chemotherapy drug was calculated and plotted against the concentration of COH-SR4 for each concentration of the chemotherapy drug used.

[7] = system: B16-F0 and A2058 melanoma cells; assay: TUNEL apoptosis assay, melanoma; format: cell-based; settings: 24 h
Description: For TUNEL assay, 1×10^5 cells were grown on the cover slips for ˜12 h followed by treatment with COH-SR4 (5 μM or 10 μM) or elesclomol (5 μM) for 24 h. Apoptosis was determined by the labeling of DNA fragments with terminal deoxynucleotidyl-transferase dUTP nick-end labeling (TUNEL) assay using Promega fluorescence apoptosis detection system, and examined using Zeiss LSM 510 META laser scanning fluorescence microscope with filters 520 and 620 nm according to the protocol described previously (91). Photographs taken at identical exposure at ×400 magnification are presented.

[8] = system: SK-MEL2; assay: Intracellular ATP production, luminescence kit; format: cell-based, human; settings: 5 μM, less than 1 h
Description: ATP production from cells treated with test compounds were measured using the Luminescent ATP Detection Assay Kit. AMP, ATP and ADP were measured by UV-HPLC.
One of the consequences of mitochondria uncoupling is decrease intracellular ATP production, leading to increased AMP:ATP ratio and triggering activation of the energy-sensitive enzyme AMPK. It has been previously shown that COH-SR4 indirectly activates AMPK in a time- and dose-dependent manner in both HepG2 cells and 3T3-adipocytes. […] In melanomas, mutation rates for BRAF NRAS and LKB1 are 50-70%, 5-30%, and 10%, respectively. […] AMPK activation may cause a cell cycle arrest associated with stabilization of p53 and the cyclin-dependent kinase inhibitors p21^WAF1 and p27^CIP1.

[9] = system: HL-60 cells; assay: HL-60 cell viability, MTT assay; settings: for cytotoxicity and cell proliferation: 48 hours, 1-15 μM
Description: Three independent experiments were carried out with 3 duplications each, and data are shown as mean±SE.

SMILES	AMPK activation [1]	overall apoptotic cells [2] [%]	activity in NCI-60 screening [3]	IC50 [4] [nM]	IC50 [5] [nM]	combination effect (CI) with CPT-11 ([6]; COH-SR4 <0.5 μM + CPT-11 <0.125 μM)	combination effect (CI) with SN-38 ([6]; COH-SR4 <0.5 μM + SN-38 <0.001 μM)	combination effect (CI) with TMZ ([6]; COH-SR4 <0.5 μM + TMZ 12.5 μM, 4 days)	combination effect (CI) with SN-38 ([6]; COH-SR4 >0.5 μM + SN-38 <0.003 μM)	combination effect (CI) with TMZ ([6]; COH-SR4 >0.65 μM + TMZ 100 μM)	combination effect (CI) with CPT-11 ([6]; COH-SR4 >0.675 μM + CPT-11 >0.5 μM)	apoptosis (DNA fragmentation, TUNEL) ([7]; 5 μM)	apoptosis (DNA fragmentation, TUNEL) ([7]; 10 μM)	intracellular ATP production [8]	cytotoxicity and cell proliferation [9]	IC50 ([9]; Homo sapiens, HL-60, 48 h) [nM]	IC50 ([9]; Homo sapiens, HL-60, 72 h) [nM]	IC50 ([9]; 72 hours incubation) [nM]
O=C(Nc1cc(Cl)cc(Cl)c1)Nc1cc(Cl)cc(Cl)c1 [COH-SR4, 1,3-bis(3,5-dichlorophenyl) urea]	highest potency; also recorded: Dose-dependent AMPK activation	~60	active against	2000	1500	Synergism	Synergism	Synergism	Additive effects	Additive effects	Additive effects	induced apoptosis	induced apoptosis	rapid decline	exhibited cytotoxicity and prevented cell proliferation of HL-60 leukemia cells	< 5000	~1700	–
Cc1c(Cl)cc(NC(=O)Nc2cc(Cl)cc(Cl)c2)c(O)c1Cl [COH-SR9, 1-(3,5-dichlorophenyl)-3-(3,5-dichloro-2-hydroxy-4-methyphenyl) urea]	Dose-dependent AMPK activation	40	active against	–	–	–	–	–	–	–	–	–	–	–	exhibited cytotoxicity and prevented cell proliferation of HL-60 leukemia cells	–	–	~2500

Source: patent publication US9808434B2, “Compound for treating cancer and diabetes” (CITY OF HOPE, priority 2011, dated 2017)
